The record followed here is US20130053430A1, “MODULATION OF CETP EXPRESSION” (Isis Pharmaceuticals, Inc., priority 2010, published 2013).

The nature of series [1]: Plasma cholesterol and triglyceride levels in huApoB/huCETP/mLDLr mouse model (Example 7). To be noted: huApoB+/−huCETP+/−mLDLr+/− mice (Groups B-E), ASO 25 mg/kg s.c. twice/week. The series is classed as in vivo, mice. An excerpt:
The huApoB^+/−huCETP^+/−mLDLr^+/− mice were divided into five groups of 5-7 mice each. […] The saline-injected group served as the control group to which oligonucleotide-treated groups were compared. […] This group served a negative control for the effects of the antisense oligonucleotides against CETP. The groups are further described in Table 27, and are designated letters A-F, by which they will be referred from henceforth.
HDL and LDL cholesterol were individually measured by HPLC. Triglyceride levels were measured on weeks 0, 3 and 6 with the use of a commercially available triglyceride kit (DCL Triglyceride Reagent; Diagnostic Chemicals Ltd.).

The subject of series [2] is human CETP mRNA. In words: Antisense inhibition of human CETP mRNA in SW872 liposarcoma cells (Example 1). The series is classed as cell-based. To be noted: 150 nM antisense oligonucleotide, lipofectin, ~24 hours, relative to untreated control cells. The protocol:
Antisense oligonucleotides targeted to a CETP nucleic acid were tested for their effect on CETP mRNA transcript in vitro. Cultured SW872 liposarcoma cells at a density of 50,000 cells per well in a 24-well plate were transfected using lipofectin reagent with 150 nM antisense oligonucleotide. After approximately 24 hours, RNA was isolated from the cells and CETP mRNA levels were measured by quantitative real-time PCR. A human primer probe set (forward sequence […], designated herein as SEQ ID NO: 38; reverse sequence GGCTCACGCCTTTGCTGTT, designated herein as SEQ ID NO: 39; probe sequence […], designated herein as SEQ ID NO: 40) was used to quantitate CETP mRNA. CETP mRNA transcript levels were adjusted according to total RNA content, as measured by the house-keeping gene, GAPDH mRNA levels. GAPDH was measured using a primer probe set with the sequence as set forth in SEQ ID NOs: 10, 11, 13. Results are presented as percent inhibition of CETP, relative to untreated control cells.
The antisense oligonucleotides in Table 3 are 5-10-5 gapmers, where the gap segment comprises ten 2′-deoxynucleosides and each wing segment comprises five 2′-MOE nucleosides. Each nucleotide in the 5′ wing segment and each nucleotide in the 3′ wing segment has a 2′-MOE modification. The internucleoside linkages throughout each gapmer are phosphorothioate (P═S) linkages. All cytosine residues throughout each gapmer are 5-methylcytosines. ‘Target start site’ indicates the 5′-most nucleotide to which the antisense oligonucleotide is targeted. ‘Target stop site’ indicates the 3′-most nucleotide to which the antisense oligonucleotide is targeted. All the antisense oligonucleotides listed in Table 3 target human CETP mRNA, designated herein as SEQ ID NO: 1 (GENBANK Accession No. M30185.1).

Series [3] deals with human CETP mRNA. As to the kind of experiment: Antisense inhibition of human CETP mRNA in primary hepatocytes from huCETP transgenic mice (Example 4). To be noted: cytofectin, ~24 hours. The series is classed as cell-based, mouse. The protocol:
Transgenic mice expressing human CETP, controlled by its natural flanking region, increase expression of this gene in response to hypercholesterolemia (Jiang, X. C. et al., J. Clin. Invest. 1992. 90: 1290-1295). These mice were utilized for the following studies. Antisense oligonucleotides targeted to a CETP nucleic acid and described in Example 1 were tested for their effect on CETP mRNA transcript in vitro. Cultured primary hepatocytes from huCETP transgenic mice, at a density of 17,500 cells per well in a 96-well plate, were transfected using cytofectin reagent with 100 nM or 200 nM antisense oligonucleotide. After approximately 24 hours, RNA was isolated from the cells and CETP mRNA levels were measured by quantitative real-time PCR. CETP mRNA transcript levels were adjusted according to total RNA content, as measured by the house-keeping gene, GAPDH mRNA levels. Results are presented in Table 6 as percent inhibition of CETP, relative to untreated control cells.

In general, % inhibition refers to the relative decrease from the control value, in per cent. Lower therefore signals a weak effect.

Strand notation (5' to 3'): a small letter for the sugar, then the base; units joined by * are phosphorothioate-linked, units joined directly phosphodiester-linked; [ ] holds rarer units or linkages, { } end groups; capitals alone tell only the bases. e = 2'-O-(2-methoxyethyl) (MOE); [5mC] = 5-methylcytosine; d = 2'-deoxy (DNA)

On to `O=C(O)c1cccnc1` [Nicotinic acid, nicotinic acid, reference compound], for which, in series [1] (Week 0), the “% HDL/total cholesterol” value stood at 23%, the HDL cholesterol levels worked out at 45 mg/dL, the LDL cholesterol levels was determined as 122 mg/dL and the Total cholesterol levels was 195 mg/dL. The molecule also gave a Triglyceride levels in series [1] (Week 0) of 134 mg/dL. Besides, in series [1] (Week 3), the “% HDL/total cholesterol” value stood at 34%, the HDL cholesterol levels turned out to be 57 mg/dL, the LDL cholesterol levels came to 102 mg/dL and the Total cholesterol levels is listed as 169 mg/dL. In series [1] (Week 3), this molecule showed a Triglyceride levels of 108 mg/dL. Moreover, in series [1] (Week 6), the “% HDL/total cholesterol” value came to 39%, the HDL cholesterol levels is 65 mg/dL, the LDL cholesterol levels was 102 mg/dL and the Total cholesterol levels came to 170 mg/dL. For the same molecule, the Triglyceride levels in series [1] (Week 6) is listed as 138 mg/dL.
With “ISIS 133837: 5-10-5 MOE gapmer TCCACCAGCAGGTGCTCAGG (eT*e[5mC]*e[5mC]*eA*e[5mC]*d[5mC]*dA*dG*d[5mC]*dA*dG*dG*dT*dG*d[5mC]*eT*e[5mC]*eA*eG*eG)”, in the series with human CETP mRNA [2], the “% inhibition” value is 70%.
Regarding “ISIS 349444: 5-10-5 MOE gapmer TCCTGGCCCCAGAGATTCAC (eT*e[5mC]*e[5mC]*eT*eG*dG*d[5mC]*d[5mC]*d[5mC]*d[5mC]*dA*dG*dA*dG*dA*eT*eT*e[5mC]*eA*e[5mC])”, the “% inhibition” value in the series with human CETP mRNA [2] turned out to be 20%. Further, the “Percent inhibition of human CETP mRNA” value in the series with human CETP mRNA [3] (100 nM) was 59%; in the series with human CETP mRNA [3] (200 nM), 0%.
Turning to “ISIS 349445: 5-10-5 MOE gapmer CAGCAGGGTCTTCCTGGCCC (e[5mC]*eA*eG*e[5mC]*eA*dG*dG*dG*dT*d[5mC]*dT*dT*d[5mC]*d[5mC]*dT*eG*eG*e[5mC]*e[5mC]*e[5mC])”, in the series with human CETP mRNA [2], the “% inhibition” value stood at 6%. For the same molecule, the “Percent inhibition of human CETP mRNA” value is 74% with human CETP mRNA [3] (100 nM) and 71% in the series with human CETP mRNA [3] (200 nM).
With “ISIS 349446: 5-10-5 MOE gapmer GGAACATGAGGCTCTTCCGG (eG*eG*eA*eA*e[5mC]*dA*dT*dG*dA*dG*dG*d[5mC]*dT*d[5mC]*dT*eT*e[5mC]*e[5mC]*eG*eG)”, the “% inhibition” value in the series on human CETP mRNA [2] is listed as 0%. Also, the “Percent inhibition of human CETP mRNA” value with human CETP mRNA [3] (100 nM) is 34%; in the series on human CETP mRNA [3] (200 nM), 36%.
As to “ISIS 349447: 5-10-5 MOE gapmer TATGTATGTCCGCCCAGCCC (eT*eA*eT*eG*eT*dA*dT*dG*dT*d[5mC]*d[5mC]*dG*d[5mC]*d[5mC]*d[5mC]*eA*eG*e[5mC]*e[5mC]*e[5mC])”, the “% inhibition” value in the series with human CETP mRNA [2] was determined as 15%. In addition, the “Percent inhibition of human CETP mRNA” value is on record as 57% in the series on human CETP mRNA [3] (100 nM) and 28% in the series on human CETP mRNA [3] (200 nM).
Turning to “ISIS 349448: 5-10-5 MOE gapmer CCGTATATGTATGTCCGCCC (e[5mC]*e[5mC]*eG*eT*eA*dT*dA*dT*dG*dT*dA*dT*dG*dT*d[5mC]*e[5mC]*eG*e[5mC]*e[5mC]*e[5mC])”, in the series with human CETP mRNA [2], the “% inhibition” value is recorded as 0%. Further, the “Percent inhibition of human CETP mRNA” value with human CETP mRNA [3] (100 nM) was 53%; in the series on human CETP mRNA [3] (200 nM), 40%.
For “ISIS 349449: 5-10-5 MOE gapmer CGAGCCGTTCAGCCTGGAGC (e[5mC]*eG*eA*eG*e[5mC]*d[5mC]*dG*dT*dT*d[5mC]*dA*dG*d[5mC]*d[5mC]*dT*eG*eG*eA*eG*e[5mC])”, the “% inhibition” value in the series on human CETP mRNA [2] is reported as 28%. Also, the “Percent inhibition of human CETP mRNA” value amounted to 68% in the series on human CETP mRNA [3] (100 nM) and 63% with human CETP mRNA [3] (200 nM).
The corresponding values for “ISIS 349450: 5-10-5 MOE gapmer GCAGTGGTGTGTAAGTGGCC (eG*e[5mC]*eA*eG*eT*dG*dG*dT*dG*dT*dG*dT*dA*dA*dG*eT*eG*eG*e[5mC]*e[5mC])” are 21%, 89% and 59%.
As to “ISIS 349451: 5-10-5 MOE gapmer GCAGCCAGCATGGTTATCAG (eG*e[5mC]*eA*eG*e[5mC]*d[5mC]*dA*dG*d[5mC]*dA*dT*dG*dG*dT*dT*eA*eT*e[5mC]*eA*eG)”, in the series with human CETP mRNA [2], the “% inhibition” value amounted to 23%. Besides, the “Percent inhibition of human CETP mRNA” value with human CETP mRNA [3] (100 nM) was found to be 42%; in the series on human CETP mRNA [3] (200 nM) it was 54%.
On to “ISIS 349452: 5-10-5 MOE gapmer CAGGACTGTGGCAGCCAGCA (e[5mC]*eA*eG*eG*eA*d[5mC]*dT*dG*dT*dG*dG*d[5mC]*dA*dG*d[5mC]*e[5mC]*eA*eG*e[5mC]*eA)”, for which the “% inhibition” value in the series with human CETP mRNA [2] came out at 75%. The “Percent inhibition of human CETP mRNA” value with human CETP mRNA [3] (100 nM) came to 60%; with human CETP mRNA [3] (200 nM), 51%.
As to “ISIS 349453: 5-10-5 MOE gapmer GCATTGCCCAGCAGGGCCAG (eG*e[5mC]*eA*eT*eT*dG*d[5mC]*d[5mC]*d[5mC]*dA*dG*d[5mC]*dA*dG*dG*eG*e[5mC]*e[5mC]*eA*eG)”, in the series with human CETP mRNA [2], the “% inhibition” value came out at 45%. Also, the “Percent inhibition of human CETP mRNA” value is 2% with human CETP mRNA [3] (100 nM) and 26% with human CETP mRNA [3] (200 nM).
Turning to “ISIS 349454: 5-10-5 MOE gapmer GTGCCTTTGGAGCAGGCATG (eG*eT*eG*e[5mC]*e[5mC]*dT*dT*dT*dG*dG*dA*dG*d[5mC]*dA*dG*eG*e[5mC]*eA*eT*eG)”, the “% inhibition” value in the series on human CETP mRNA [2] came out at 46%. The “Percent inhibition of human CETP mRNA” value with human CETP mRNA [3] (100 nM) stood at 69%; in the series with human CETP mRNA [3] (200 nM) it was 68%.
“ISIS 349455: 5-10-5 MOE gapmer CGATGCCTGCCTCGTGCGAG (e[5mC]*eG*eA*eT*eG*d[5mC]*d[5mC]*dT*dG*d[5mC]*d[5mC]*dT*d[5mC]*dG*dT*eG*e[5mC]*eG*eA*eG)”: the “% inhibition” value with human CETP mRNA [2] is 35%. The “Percent inhibition of human CETP mRNA” value with human CETP mRNA [3] (100 nM) came to 25%; in the series on human CETP mRNA [3] (200 nM) it was 17%.
For “ISIS 349456: 5-10-5 MOE gapmer TCGTGGTTCAACACCAGGAG (eT*e[5mC]*eG*eT*eG*dG*dT*dT*d[5mC]*dA*dA*d[5mC]*dA*d[5mC]*d[5mC]*eA*eG*eG*eA*eG)”, the “% inhibition” value with human CETP mRNA [2] turned out to be 68%. Besides, the “Percent inhibition of human CETP mRNA” value is given as 74% in the series on human CETP mRNA [3] (100 nM) and 51% in the series on human CETP mRNA [3] (200 nM).
Take “ISIS 349457: 5-10-5 MOE gapmer TCTGGATCACCTTGGCAGTC (eT*e[5mC]*eT*eG*eG*dA*dT*d[5mC]*dA*d[5mC]*d[5mC]*dT*dT*dG*dG*e[5mC]*eA*eG*eT*e[5mC])”: in the series on human CETP mRNA [2], the “% inhibition” value is recorded as 52%. Besides, the “Percent inhibition of human CETP mRNA” value in the series with human CETP mRNA [3] (100 nM) stood at 42%; with human CETP mRNA [3] (200 nM), 30%.
For “ISIS 349458: 5-10-5 MOE gapmer GGTAGCTGGCTCGCTGGAAG (eG*eG*eT*eA*eG*d[5mC]*dT*dG*dG*d[5mC]*dT*d[5mC]*dG*d[5mC]*dT*eG*eG*eA*eA*eG)”, in that order: 18%, 65% and 32%.
“ISIS 349459: 5-10-5 MOE gapmer CTTCTCGCCCGTGATATCTG (e[5mC]*eT*eT*e[5mC]*eT*d[5mC]*dG*d[5mC]*d[5mC]*d[5mC]*dG*dT*dG*dA*dT*eA*eT*e[5mC]*eT*eG)”: the “% inhibition” value with human CETP mRNA [2] stood at 79%. Besides, the “Percent inhibition of human CETP mRNA” value with human CETP mRNA [3] (100 nM) was 50%; in the series with human CETP mRNA [3] (200 nM) it was 63%.
For “ISIS 349460: 5-10-5 MOE gapmer GCATCATGGCCTTCTCGCCC (eG*e[5mC]*eA*eT*e[5mC]*dA*dT*dG*dG*d[5mC]*d[5mC]*dT*dT*d[5mC]*dT*e[5mC]*eG*e[5mC]*e[5mC]*e[5mC])”, in that order: 80%, 67% and 76%.
